Data set [1] concerns the target T1, Nuclear receptor ROR-beta (Homo sapiens, UniProt Q92753).
T1 sequence (Q92753 whole entry): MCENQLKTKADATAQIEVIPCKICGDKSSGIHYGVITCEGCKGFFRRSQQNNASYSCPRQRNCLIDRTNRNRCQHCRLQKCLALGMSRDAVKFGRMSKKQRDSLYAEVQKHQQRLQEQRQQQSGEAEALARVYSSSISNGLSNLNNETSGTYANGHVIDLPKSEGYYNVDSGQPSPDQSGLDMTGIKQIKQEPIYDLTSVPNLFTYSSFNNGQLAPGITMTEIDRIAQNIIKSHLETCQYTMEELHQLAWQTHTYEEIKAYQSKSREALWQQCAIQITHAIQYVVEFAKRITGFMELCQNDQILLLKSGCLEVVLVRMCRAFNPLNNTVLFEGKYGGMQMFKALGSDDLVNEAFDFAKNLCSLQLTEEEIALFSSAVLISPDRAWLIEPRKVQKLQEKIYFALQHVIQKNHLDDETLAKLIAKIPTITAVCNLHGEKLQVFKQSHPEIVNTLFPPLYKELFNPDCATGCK
Briefly: Binding affinity to recombinant human RORbeta LBD (201 to 452 residues) expressed in Escherichia coli BL21 (DE3) GOLD by 1,8-ANS dye-based thermofluor assay. A general note: DSF heats the sample and reads unfolding from a dye or from intrinsic fluorescence.

Data set [2] has as its target T2, PXR (NR1I2) (Homo sapiens, UniProt O75469).
T2 sequence (O75469 whole entry): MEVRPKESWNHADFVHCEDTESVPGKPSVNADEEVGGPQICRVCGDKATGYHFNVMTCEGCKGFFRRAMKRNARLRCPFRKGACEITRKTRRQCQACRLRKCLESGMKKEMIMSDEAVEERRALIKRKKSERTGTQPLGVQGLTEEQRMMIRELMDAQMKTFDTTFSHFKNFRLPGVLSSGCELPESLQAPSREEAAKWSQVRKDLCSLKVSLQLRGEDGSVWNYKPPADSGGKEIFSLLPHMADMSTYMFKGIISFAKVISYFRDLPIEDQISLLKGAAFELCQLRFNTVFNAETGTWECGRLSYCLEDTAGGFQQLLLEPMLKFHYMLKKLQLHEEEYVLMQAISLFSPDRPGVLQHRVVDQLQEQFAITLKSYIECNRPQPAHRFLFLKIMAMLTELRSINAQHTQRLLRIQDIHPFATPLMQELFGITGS
Briefly: […] at PXR LBD (unknown origin) expressed in HEK293 cells […] at 1 uM after 16 hrs by luciferase reporter gene assay relative to rifampicin. The settings on record: HEK293 cells expressing PXR LBD, read-out: Efficacy. It is filed as ADME, cell-based.

A short description of data set [3]: Thermodynamic solubility of the compound in 30 mM phosphate buffer at 10 mM at pH 7 after 2 to 5 days by UV-HPLC analysis. The settings on record: read-out: Therm_solubility. The class given is physicochemical.
The target in data set [4] is T2, PXR (NR1I2). Briefly: […] at PXR LBD (unknown origin) expressed in HEK293 cells […] at 5 uM after 16 hrs by luciferase reporter gene assay relative to rifampicin. The settings on record: HEK293 cells expressing PXR LBD, read-out: Efficacy. It is filed as ADME, cell-based. (In a reporter assay the amount or activity of a reporter protein is the signal.)

Data set [5] in a line: Half life in rat microsomes. The class given is ADME, Microsome.
The nature of data set [6]: Half life in human microsomes. The class given is ADME, Microsome.
The target of the next data set is T3, Cytochrome P450 1A2 (Homo sapiens, UniProt P05177).
T3 sequence (P05177 whole entry): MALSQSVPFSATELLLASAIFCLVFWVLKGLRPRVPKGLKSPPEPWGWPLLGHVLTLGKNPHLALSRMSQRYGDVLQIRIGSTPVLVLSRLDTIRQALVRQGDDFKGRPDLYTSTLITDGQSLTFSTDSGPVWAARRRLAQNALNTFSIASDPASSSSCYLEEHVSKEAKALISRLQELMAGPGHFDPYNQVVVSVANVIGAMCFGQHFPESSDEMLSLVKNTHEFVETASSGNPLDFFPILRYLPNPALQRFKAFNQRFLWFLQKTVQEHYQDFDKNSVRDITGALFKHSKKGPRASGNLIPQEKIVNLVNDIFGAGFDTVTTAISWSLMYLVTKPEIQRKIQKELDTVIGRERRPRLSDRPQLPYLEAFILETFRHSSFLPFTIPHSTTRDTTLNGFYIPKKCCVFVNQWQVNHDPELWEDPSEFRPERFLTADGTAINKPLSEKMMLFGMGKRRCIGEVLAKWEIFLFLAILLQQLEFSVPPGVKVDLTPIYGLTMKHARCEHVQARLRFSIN
Briefly: Inhibition of CYP1A2 (unknown origin). It is filed as ADME.

The next data set has as its target Cytochrome P450 2C19 (Homo sapiens, UniProt P33261). Nature of the data set: Inhibition of CYP2C19 (unknown origin). The class given is ADME.
The next data set concerns the target T4, Cytochrome P450 2C8 (Homo sapiens, UniProt P10632).
T4 sequence (P10632 whole entry): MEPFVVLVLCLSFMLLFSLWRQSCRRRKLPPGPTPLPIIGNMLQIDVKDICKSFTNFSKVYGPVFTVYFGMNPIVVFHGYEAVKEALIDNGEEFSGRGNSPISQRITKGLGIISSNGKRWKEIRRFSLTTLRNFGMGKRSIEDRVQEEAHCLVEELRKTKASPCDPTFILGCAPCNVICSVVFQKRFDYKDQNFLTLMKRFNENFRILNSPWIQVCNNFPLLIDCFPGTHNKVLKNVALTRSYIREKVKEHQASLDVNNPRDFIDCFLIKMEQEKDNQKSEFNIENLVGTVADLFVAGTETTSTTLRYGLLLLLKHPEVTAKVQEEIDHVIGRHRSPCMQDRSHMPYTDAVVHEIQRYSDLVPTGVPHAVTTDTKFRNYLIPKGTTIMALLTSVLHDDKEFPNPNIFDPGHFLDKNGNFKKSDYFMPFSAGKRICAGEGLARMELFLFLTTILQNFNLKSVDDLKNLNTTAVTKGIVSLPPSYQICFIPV
Briefly: Inhibition of CYP2C8 (unknown origin). It is filed as ADME.

The next data set addresses Cytochrome P450 2C9 (Homo sapiens, UniProt P11712). Nature of the data set: Inhibition of CYP2C9 (unknown origin). The class given is ADME.
Another data set deals with Cytochrome P450 2D6 (Homo sapiens, UniProt P10635). Briefly: Inhibition of CYP2D6 (unknown origin). It is filed as ADME.
Sequence of Cytochrome P450 2D6 (P10635 whole entry): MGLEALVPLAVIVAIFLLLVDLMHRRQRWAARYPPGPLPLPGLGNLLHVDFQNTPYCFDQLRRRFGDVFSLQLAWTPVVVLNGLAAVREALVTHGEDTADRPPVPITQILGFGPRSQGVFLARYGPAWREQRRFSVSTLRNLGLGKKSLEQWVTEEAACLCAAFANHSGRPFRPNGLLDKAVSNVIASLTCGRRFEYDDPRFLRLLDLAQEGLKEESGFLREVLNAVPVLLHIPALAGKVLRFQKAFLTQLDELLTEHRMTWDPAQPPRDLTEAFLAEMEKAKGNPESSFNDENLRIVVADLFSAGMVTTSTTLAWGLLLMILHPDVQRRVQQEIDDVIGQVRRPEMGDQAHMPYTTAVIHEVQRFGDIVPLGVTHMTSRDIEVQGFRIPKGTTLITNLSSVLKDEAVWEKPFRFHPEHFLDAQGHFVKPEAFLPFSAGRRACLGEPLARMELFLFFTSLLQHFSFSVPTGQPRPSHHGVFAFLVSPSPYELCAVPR
The next data set addresses Cytochrome P450 3A4 (Homo sapiens, UniProt P08684). Briefly: Inhibition of CYP3A4 (unknown origin). The class given is ADME.
A short description of data set [7]: Clearance in Sprague-Dawley rat at 1 mg/kg, iv. The class given is ADME, organism-based. The settings on record: in vivo.
A short description of data set [8]: Volume of distribution at steady state in Sprague-Dawley rat at 1 mg/kg, iv. The class given is ADME, organism-based. The settings on record: in vivo, read-out: Vdss.
Data set [9] can be described thus: AUC (0 to infinity) in Sprague-Dawley rat at 1 mg/kg, iv. The class given is ADME, organism-based. On the set-up: dose 1 mg/kg, time infinity, route intravenous. The settings on record: in vivo.
The nature of data set [10]: Initial plasma concentration in Sprague-Dawley rat at 1 mg/kg, iv. The class given is ADME, organism-based.
Data set [11] can be described thus: Half life in Sprague-Dawley rat at 1 mg/kg, iv. It is filed as ADME, organism-based. The settings on record: in vivo.
Data set [12] is described as follows: Cmax in Sprague-Dawley rat at 5 mg/kg, po. The settings on record: in vivo. Set-up: dose 5 mg/kg, route oral. The class given is ADME, organism-based.
The nature of data set [13]: Tmax in Sprague-Dawley rat at 5 mg/kg, po. The settings on record: in vivo. It is filed as ADME, organism-based.
The nature of data set [14]: AUC (0 to infinity) in Sprague-Dawley rat at 5 mg/kg, po. It is filed as ADME, organism-based. On the set-up: dose 5 mg/kg, route oral, time infinity. The settings on record: in vivo.
A short description of data set [15]: Terminal half life in Sprague-Dawley rat at 5 mg/kg, po. The class given is ADME, organism-based. The settings on record: in vivo, read-out: beta t1/2 (converted).
Data set [16] can be described thus: Oral bioavailability in Sprague-Dawley rat at 5 mg/kg. The settings on record: in vivo. The class given is ADME, organism-based.
The target in data set [17] is T2, PXR (NR1I2). Nature of the data set: […] at PXR LBD (unknown origin) expressed in HEK293 cells […] at 10 uM after 16 hrs by luciferase reporter gene assay relative to rifampicin. It is filed as ADME, cell-based. The settings on record: HEK293 cells expressing PXR LBD, read-out: Efficacy.

Experimental findings from ChEMBL document CHEMBL4118122, “Identification and biological evaluation of thiazole-based inverse agonists of RORγt” (Bioorg Med Chem Lett, 2018) are described below.

For orientation: Kd means the constant that tells how readily two partners part at equilibrium. The term clearance denotes a measure of how efficiently the substance is removed, as volume per time. High values mean efficient removal, low ones inefficient removal. As a reminder, the AUC(0-inf) is total exposure, with the tail of the curve extrapolated. A high value points to high exposure. The Cmax is the maximum level reached in the sampled fluid or tissue. What is called Tmax is the time at which the peak concentration occurs. The bioavailability is the share of a dose that reaches the circulation, judged against a reference dose that is usually intravenous.

Values after ≈ are worked out from the molar mass of the structure shown.

Sequence of Cytochrome P450 2C19 (P33261 whole entry): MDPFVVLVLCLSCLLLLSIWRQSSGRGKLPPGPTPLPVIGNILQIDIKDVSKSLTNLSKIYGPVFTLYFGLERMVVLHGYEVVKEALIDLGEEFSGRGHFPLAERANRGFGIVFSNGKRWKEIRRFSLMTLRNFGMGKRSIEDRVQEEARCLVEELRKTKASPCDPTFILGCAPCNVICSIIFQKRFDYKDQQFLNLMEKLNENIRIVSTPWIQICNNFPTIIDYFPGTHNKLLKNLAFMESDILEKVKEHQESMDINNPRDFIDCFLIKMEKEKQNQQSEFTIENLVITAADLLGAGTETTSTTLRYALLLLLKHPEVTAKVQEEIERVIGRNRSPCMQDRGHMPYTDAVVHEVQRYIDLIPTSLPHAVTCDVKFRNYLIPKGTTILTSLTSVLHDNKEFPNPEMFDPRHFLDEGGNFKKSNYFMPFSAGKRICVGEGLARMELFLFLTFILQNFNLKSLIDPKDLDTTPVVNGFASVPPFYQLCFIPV
Sequence of Cytochrome P450 3A4 (P08684 whole entry): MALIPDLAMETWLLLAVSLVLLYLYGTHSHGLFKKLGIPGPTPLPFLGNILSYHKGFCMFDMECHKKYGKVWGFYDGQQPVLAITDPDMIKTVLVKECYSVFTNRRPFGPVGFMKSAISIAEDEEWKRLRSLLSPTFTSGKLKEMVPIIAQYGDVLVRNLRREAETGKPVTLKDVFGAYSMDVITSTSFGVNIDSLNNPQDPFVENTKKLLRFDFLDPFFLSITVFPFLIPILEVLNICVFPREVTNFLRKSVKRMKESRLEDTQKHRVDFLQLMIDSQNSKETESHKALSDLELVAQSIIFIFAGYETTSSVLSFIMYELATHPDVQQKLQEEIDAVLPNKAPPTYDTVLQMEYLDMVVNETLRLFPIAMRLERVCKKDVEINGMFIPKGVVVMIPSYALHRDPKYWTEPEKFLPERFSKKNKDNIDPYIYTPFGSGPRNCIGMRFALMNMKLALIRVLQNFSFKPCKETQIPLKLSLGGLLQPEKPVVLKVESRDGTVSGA
Sequence of Cytochrome P450 2C9 (P11712 whole entry): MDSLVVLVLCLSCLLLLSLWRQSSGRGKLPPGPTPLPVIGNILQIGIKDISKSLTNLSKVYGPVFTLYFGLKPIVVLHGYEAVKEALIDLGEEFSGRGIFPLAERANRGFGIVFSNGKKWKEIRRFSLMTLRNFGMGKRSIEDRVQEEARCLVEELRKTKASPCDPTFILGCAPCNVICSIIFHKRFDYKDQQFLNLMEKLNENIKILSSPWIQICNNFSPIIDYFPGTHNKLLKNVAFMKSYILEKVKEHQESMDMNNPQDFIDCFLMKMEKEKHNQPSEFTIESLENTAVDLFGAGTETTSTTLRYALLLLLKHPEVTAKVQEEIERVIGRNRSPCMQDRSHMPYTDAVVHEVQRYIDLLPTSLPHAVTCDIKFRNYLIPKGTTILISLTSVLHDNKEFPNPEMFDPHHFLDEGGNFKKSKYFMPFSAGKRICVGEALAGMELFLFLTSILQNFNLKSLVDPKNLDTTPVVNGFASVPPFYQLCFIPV

Regarding `C[C@H](NS(=O)(=O)c1ccc(-c2sc(C(=O)NCC(C)(C)O)nc2CC2CCC2)c(C(F)F)c1)C(F)(F)F`, in [1], the Kd was more than 72 µM. The Emax at 16 h, 1 µM at PXR (NR1I2) [2] came out at 74%. The solubility thermodynamic at 10000 µM in data set [3] is less than 4 µM. For the same compound, on PXR (NR1I2) [4], the Emax at 16 h, 5 µM turned out to be 144%. For the same compound, the half-life is 0.95 h in [5], more than 3 h in [6], 1.9 h in data set [11] and 3.2 h in [15]. For the same compound, the INH is more than 10 µM on Cytochrome P450 1A2; 3 µM at Cytochrome P450 2C19; more than 10 µM on Cytochrome P450 2C8; 2.7 µM on Cytochrome P450 2C9; 5.4 µM at Cytochrome P450 2D6; more than 10 µM on Cytochrome P450 3A4. Moreover, the clearance in data set [7] amounted to 46.7 mL/min/kg. In addition, the Vd in data set [8] turned out to be 5.4 L/kg. In addition, the AUC(0-inf) in [9] amounted to 198 ng·h/mL; in data set [14], 321 ng·h/mL. In addition, in data set [10], the C0 is 310 ng/mL. Further, the Cmax in data set [12] was 57 ng/mL. The Tmax in data set [13] came out at 1.7 h. Besides, in data set [16], the bioavailability was 32.5%.

Turning to `CC(C)(C)NS(=O)(=O)c1ccc(-c2sc(C(=O)N[C@H]3C[C@H](C(=O)O)C3)nc2CC2CCCCC2)c(Cl)c1`, the Kd in data set [1] is more than 75 µM. In addition, at PXR (NR1I2) [2], the Emax at 16 h, 1 µM came to 101%. Besides, in data set [3], the solubility thermodynamic at 10000 µM came out at 6.6 µM (≈ 3.75 µg/mL). Also, the Emax at 16 h, 10 µM on PXR (NR1I2) [17] was determined as 178%. Moreover, the half-life in data set [5] is 1.22 h; in data set [6] it was 1.68 h; in data set [11], 0.5 h; in data set [15], 2.1 h. Also, the INH at Cytochrome P450 1A2 is more than 10 µM; on Cytochrome P450 2C19 it was more than 10 µM; at Cytochrome P450 2C8, 3.5 µM; at Cytochrome P450 2C9, more than 10 µM; at Cytochrome P450 2D6, more than 10 µM; at Cytochrome P450 3A4, more than 10 µM. The compound also gave a clearance in data set [7] of 107 mL/min/kg. In addition, the Vd in [8] came out at 2.3 L/kg. The AUC(0-inf) in [9] was found to be 162 ng·h/mL; in data set [14] it was 328 ng·h/mL. Further, the C0 in data set [10] is 2300 ng/mL. The compound also had a Cmax in data set [12] of 130 ng/mL. The Tmax in data set [13] was 0.8 h. The same compound yielded a bioavailability in data set [16] of 20%.

Take `C[C@H](NS(=O)(=O)c1ccc(-c2sc(C(=O)NC3CCS(=O)(=O)CC3)nc2CC2CC2)c2ccccc12)C(F)(F)F`: in data set [1], the dissociation constant Kd is more than 69 µM. The Emax at 16 h, 1 µM at PXR (NR1I2) [2] stood at 99%. The solubility thermodynamic at 10000 µM in [3] is less than 4 µM. Besides, at PXR (NR1I2) [4], the Emax at 16 h, 5 µM was 131%. Moreover, the half-life in data set [5] was 2.35 h; in data set [6], 1.67 h; in data set [11], 3.8 h; in data set [15], 2.6 h. Further, the INH at Cytochrome P450 1A2 is more than 10 µM; on Cytochrome P450 2C19, more than 10 µM; at Cytochrome P450 2C8, more than 10 µM; on Cytochrome P450 2C9, 2.9 µM; on Cytochrome P450 2D6, more than 10 µM; on Cytochrome P450 3A4, more than 10 µM. In addition, the clearance in [7] came out at 21.6 mL/min/kg. Also, in data set [8], the Vd turned out to be 3.4 L/kg. Further, the figures for the AUC(0-inf) in data set [9] and in [14] were 792 ng·h/mL and 1700 ng·h/mL, respectively. Moreover, in data set [10], the C0 was found to be 470 ng/mL. Further, the Cmax in [12] was 276 ng/mL. In addition, the Tmax in [13] worked out at 1.7 h. In [16], this compound came in with a bioavailability of 42.5%.
